Experimental data published in patent publication US20070248950A1, “Supported polydiacetylene 3-D arrays for flourescent or phosphorescent detection” (Analytical Biological Services, Inc., priority 2006, published 2007).

Biological target: Bee venom phospholipase A2 (PLA2) (Apis mellifera, UniProt P00630)
Assay type: biochemical

Bee venom phospholipase A2 (PLA2), sequence (P00630 34-167 limits assumed): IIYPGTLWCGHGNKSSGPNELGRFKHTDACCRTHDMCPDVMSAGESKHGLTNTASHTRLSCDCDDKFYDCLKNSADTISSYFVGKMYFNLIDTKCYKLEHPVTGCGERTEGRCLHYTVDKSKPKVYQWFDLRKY

CC(=O)O[C@H]1C[C@@H]2[C@@]3(C)CCCC(C)(C)[C@@H]3CC[C@@]2(C)[C@@H]2CC=C(C=O)[C@H](C=O)[C@@]12C [schalaradiol, 12-epi-scalaradial]
inhibition of PLA2 activity (rise in emission at 640 nm of supported liposomes): partial inhibition
